# According to US20250213575A1, “8-HETEROCYCLIC-3-(PHENYLSULFONYL)-[1,2,3]TRIAZOLO[1,5A]QUINAZOLIN-5(4H)-ONE DERIVATIVES AS ANTI-BACTERIALS” (priority 2022, published 2025):
# Key:
# AgrA = AgrA (Staphylococcus aureus, UniProt P0A0I7); assay: cell-based; set-up: species or system S. aureus USA300 strain UAMS-1625; conditions: for Ratio IC50 (in presence of HSA)/IC50 (in absence of HSA): 40 mg/mL HSA vs without HSA
# red blood cell (RBC) = conditions: cited from earlier work
# S. aureus = conditions: after multiple passages with Savirin; cited from earlier work
# MRSA USA300 type strain = conditions: mice, applied multiple times; cited from earlier work
# [1] = IC50 at 40 mg/mL HSA, LB medium supplemented with 40 mg/mL human serum albumin
# [2] = IC50 without HSA, LB medium, without HSA
# Chain of AgrA (P0A0I7 whole entry): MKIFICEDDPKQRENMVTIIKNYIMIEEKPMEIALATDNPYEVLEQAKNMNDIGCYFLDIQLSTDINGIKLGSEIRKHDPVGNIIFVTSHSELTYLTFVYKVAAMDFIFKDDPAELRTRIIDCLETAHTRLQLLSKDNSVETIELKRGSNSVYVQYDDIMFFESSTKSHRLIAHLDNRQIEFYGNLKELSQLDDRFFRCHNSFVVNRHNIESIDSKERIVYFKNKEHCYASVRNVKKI
SMILES,Ratio IC50 (in presence of HSA)/IC50 (in absence of HSA) (AgrA),IC50 (AgrA; [1]) [µM],IC50 (AgrA; [2]) [µM],exotoxin-induced red blood cell (RBC) lysis (red blood cell (RBC)),resistance development (S. aureus),abscess size and dermonecrosis (MRSA USA300 type strain)
"Cc1ccc(S(=O)(=O)c2nnn3c2[nH]c(=O)c2ccc(N4CCN(C5COC5)CC4)cc23)c(C)c1 [Compound 55, 3-(2,4-dimethylbenzenesulfonyl)-8-[4-(oxetan-3-yl)piperazin-1-yl]-4H,5H-[1,2,3]triazolo[1,5-a]quinazolin-5-one]",++ (ratio ≤ 125),< 20.2,< 2.02,,,
"Cc1ccc(S(=O)(=O)c2n[nH]n3c2nc(=O)c2ccc(N4CCN(C5CCOCC5)CC4)cc23)c(C)c1 [Compound 56, 3-(2,4-dimethylbenzenesulfonyl)-8-[4-(oxan-4-yl)piperazin-1-yl]-1H,5H-[1,2,3]triazolo[1,5-a]quinazolin-5-one]",+++ (ratio ≤ 25),19.1 to 95.7,< 1.91,,,
"Cc1ccc(S(=O)(=O)c2nnn3c2[nH]c(=O)c2ccc(N4CCN(CCN)CC4)cc23)c(C)c1 [Compound 57, 8-[4-(2-aminoethyl)piperazin-1-yl]-3-(2,4-dimethylbenzenesulfonyl)-4H,5H-[1,2,3]triazolo[1,5-a]quinazolin-5-one]",+++ (ratio ≤ 25),20.8 to 104,2.08 to 10.4,,,
"CCN(CC)CCC(=O)N1CCN(c2ccc3c(=O)[nH]c4c(S(=O)(=O)c5ccc(C)cc5C)nnn4c3c2)CC1 [Compound 58, 8-{4-[3-(diethylamino)propanoyl]piperazin-1-yl}-3-(2,4-dimethylbenzenesulfonyl)-4H,5H-[1,2,3]triazolo[1,5-a]quinazolin-5-one]",,17.7 to 88.4,1.77 to 8.84,,,
"Cc1ccc(S(=O)(=O)c2n[nH]n3c2nc(=O)c2ccc(N4CCN(C5CCN(C)CC5)CC4)cc23)c(C)c1 [Compound 59, 3-(2,4-dimethylbenzenesulfonyl)-8-[4-(1-methylpiperidin-4-yl)piperazin-1-yl]-1H,5H-[1,2,3]triazolo[1,5-a]quinazolin-5-one]",+++ (ratio ≤ 25),18.7 to 93.3,1.87 to 9.33,,,
"Cc1ccc(S(=O)(=O)c2nnn3c2[nH]c(=O)c2ccc(N4CCN(C5CC5)CC4)cc23)c(C)c1 [Compound 60, 8-(4-cyclopropylpiperazin-1-yl)-3-(2,4-dimethylbenzenesulfonyl)-4H,5H-[1,2,3]triazolo[1,5-a]quinazolin-5-one]",++ (ratio ≤ 125),20.9 to 104,< 2.09,,,
"Cc1ccc(S(=O)(=O)c2nnn3c2[nH]c(=O)c2ccc(N4CC5(CC(C(=O)O)C5)C4)cc23)c(C)c1 [Compound 63, 2-[3-(2,4-Dimethyl-benzenesulfonyl)-5-oxo-4,5-dihydro-[1,2,3]triazolo[1,5-a]quinazolin-8-yl]-2-aza-spiro[3.3]heptane-6-carboxylic acid]",+++ (ratio ≤ 25),< 20.3,< 2.03,,,
"Cc1ccc(S(=O)(=O)c2nnn3c2[nH]c(=O)c2ccc(N4CCC(C(=O)O)CC4)cc23)c(C)c1 [Compound 64, 1-[3-(2,4-Dimethyl-benzenesulfonyl)-5-oxo-4,5-dihydro-[1,2,3]triazolo[1,5-a]quinazolin-8-yl]-piperidine-4-carboxylic acid]",+++ (ratio ≤ 25),< 20.8,< 2.08,,,
CC(C)c1ccc(S(=O)(=O)c2nnn3c2nc(O)c2ccccc23)cc1 [Savirin],,,,inhibited,No resistance was developed,significant reduction
